These results are taken from ChEMBL document CHEMBL1154884, “Synthesis and biological evaluation of triazol-4-ylphenyl-bearing histone deacetylase inhibitors as anticancer agents” (J Med Chem, 2010).

As a reminder, the IC50 is the point on the concentration scale where inhibition reaches its midpoint. A lower IC50 goes with inhibition by little substance.

A value given as a limit tells only on which side of the number the result lay.

Test [1] can be described thus: cells. The settings on record: Homo sapiens, SU.86.86, 72 h.
For test [2], the target named is T1, Protein deacetylase HDAC6 (Homo sapiens, UniProt Q9UBN7).
T1 sequence (Q9UBN7 whole entry): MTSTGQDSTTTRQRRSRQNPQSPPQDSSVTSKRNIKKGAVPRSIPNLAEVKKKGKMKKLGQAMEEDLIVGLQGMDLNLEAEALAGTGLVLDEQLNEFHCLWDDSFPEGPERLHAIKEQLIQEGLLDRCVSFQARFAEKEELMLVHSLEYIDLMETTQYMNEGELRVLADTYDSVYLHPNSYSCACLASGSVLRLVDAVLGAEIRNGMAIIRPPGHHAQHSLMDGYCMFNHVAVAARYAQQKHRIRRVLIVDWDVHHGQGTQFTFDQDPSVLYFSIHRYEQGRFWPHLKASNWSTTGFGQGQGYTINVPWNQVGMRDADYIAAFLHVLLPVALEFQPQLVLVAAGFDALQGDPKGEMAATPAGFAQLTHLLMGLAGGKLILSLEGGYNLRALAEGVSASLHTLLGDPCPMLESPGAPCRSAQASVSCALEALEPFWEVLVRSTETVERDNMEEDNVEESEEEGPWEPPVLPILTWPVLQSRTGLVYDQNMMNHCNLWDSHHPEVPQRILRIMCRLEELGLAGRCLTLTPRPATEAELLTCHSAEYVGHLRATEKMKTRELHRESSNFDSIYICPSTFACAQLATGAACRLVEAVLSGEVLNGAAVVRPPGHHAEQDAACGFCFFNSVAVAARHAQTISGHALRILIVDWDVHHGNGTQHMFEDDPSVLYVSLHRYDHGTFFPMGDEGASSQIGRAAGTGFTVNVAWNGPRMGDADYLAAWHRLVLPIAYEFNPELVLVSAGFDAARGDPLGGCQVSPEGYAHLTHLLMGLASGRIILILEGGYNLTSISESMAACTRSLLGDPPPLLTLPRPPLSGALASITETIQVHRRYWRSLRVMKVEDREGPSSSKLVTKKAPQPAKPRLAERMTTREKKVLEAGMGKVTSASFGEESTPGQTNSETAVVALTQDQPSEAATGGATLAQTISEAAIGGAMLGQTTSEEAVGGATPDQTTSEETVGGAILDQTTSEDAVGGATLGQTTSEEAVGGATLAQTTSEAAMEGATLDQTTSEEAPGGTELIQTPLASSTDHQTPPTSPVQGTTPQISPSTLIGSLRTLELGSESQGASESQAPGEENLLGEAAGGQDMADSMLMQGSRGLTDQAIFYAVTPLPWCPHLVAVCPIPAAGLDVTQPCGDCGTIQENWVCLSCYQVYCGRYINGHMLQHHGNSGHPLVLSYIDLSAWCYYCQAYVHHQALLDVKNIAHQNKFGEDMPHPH
Description: Inhibition of HDAC6 assessed as blockade of decorboxylation of carboxyfluorescein labeled acetylated peptide substrate after 17 hrs

The next test concerns MIA PaCa-2. As to the kind of experiment: cells. The conditions noted are these: Homo sapiens, MIA PaCa-2, 72 h.
Another test concerns BXPC-3. Description: cells. The settings on record: Homo sapiens, BXPC-3, 72 h.
The next test addresses Histone deacetylase 3 (Homo sapiens, UniProt O15379).
For test [3], the target named is T2, Polyamine deacetylase HDAC10 (Homo sapiens, UniProt Q969S8).
T2 sequence (Q969S8 whole entry): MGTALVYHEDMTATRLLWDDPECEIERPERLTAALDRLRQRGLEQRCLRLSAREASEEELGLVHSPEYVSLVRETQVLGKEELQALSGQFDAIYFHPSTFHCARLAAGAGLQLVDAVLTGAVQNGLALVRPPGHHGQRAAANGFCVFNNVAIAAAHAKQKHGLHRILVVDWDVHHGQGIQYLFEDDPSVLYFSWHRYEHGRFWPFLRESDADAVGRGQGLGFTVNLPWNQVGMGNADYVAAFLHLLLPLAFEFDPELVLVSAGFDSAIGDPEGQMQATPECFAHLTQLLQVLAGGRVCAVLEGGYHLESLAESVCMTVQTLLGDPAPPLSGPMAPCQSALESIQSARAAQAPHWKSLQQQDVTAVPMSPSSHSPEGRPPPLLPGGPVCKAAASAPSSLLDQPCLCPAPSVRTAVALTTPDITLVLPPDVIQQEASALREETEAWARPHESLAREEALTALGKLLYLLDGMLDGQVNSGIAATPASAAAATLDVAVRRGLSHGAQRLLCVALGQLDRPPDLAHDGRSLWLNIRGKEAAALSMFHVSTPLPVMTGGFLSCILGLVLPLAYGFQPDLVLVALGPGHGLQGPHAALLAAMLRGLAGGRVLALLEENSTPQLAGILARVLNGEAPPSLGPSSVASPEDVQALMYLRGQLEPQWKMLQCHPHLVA
Description: Inhibition of HDAC10 assessed as blockade of decorboxylation of carboxyfluorescein labeled acetylated peptide substrate after 17 hrs

The target of another test is T3, Histone deacetylase 8 (Homo sapiens, UniProt Q9BY41).
T3 sequence (Q9BY41 whole entry): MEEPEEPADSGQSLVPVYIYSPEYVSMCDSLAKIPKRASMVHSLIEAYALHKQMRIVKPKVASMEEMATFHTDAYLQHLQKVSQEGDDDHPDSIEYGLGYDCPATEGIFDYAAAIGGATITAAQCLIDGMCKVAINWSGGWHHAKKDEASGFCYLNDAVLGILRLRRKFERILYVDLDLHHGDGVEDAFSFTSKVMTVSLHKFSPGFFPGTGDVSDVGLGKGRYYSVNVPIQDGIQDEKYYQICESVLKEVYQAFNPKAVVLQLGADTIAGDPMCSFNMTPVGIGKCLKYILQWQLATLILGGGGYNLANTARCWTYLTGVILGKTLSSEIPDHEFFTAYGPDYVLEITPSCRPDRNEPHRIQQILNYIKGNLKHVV

Test [4] in a line: cells. The settings on record: Homo sapiens, Panc 04.03, 72 h.
The test system of another test is HuP-T3. Description: cells. The settings on record: Homo sapiens, HuP-T3, 72 h.
In another test the target is Histone deacetylase 1 (Homo sapiens, UniProt Q13547).
Chain of Histone deacetylase 1 (Q13547 whole entry): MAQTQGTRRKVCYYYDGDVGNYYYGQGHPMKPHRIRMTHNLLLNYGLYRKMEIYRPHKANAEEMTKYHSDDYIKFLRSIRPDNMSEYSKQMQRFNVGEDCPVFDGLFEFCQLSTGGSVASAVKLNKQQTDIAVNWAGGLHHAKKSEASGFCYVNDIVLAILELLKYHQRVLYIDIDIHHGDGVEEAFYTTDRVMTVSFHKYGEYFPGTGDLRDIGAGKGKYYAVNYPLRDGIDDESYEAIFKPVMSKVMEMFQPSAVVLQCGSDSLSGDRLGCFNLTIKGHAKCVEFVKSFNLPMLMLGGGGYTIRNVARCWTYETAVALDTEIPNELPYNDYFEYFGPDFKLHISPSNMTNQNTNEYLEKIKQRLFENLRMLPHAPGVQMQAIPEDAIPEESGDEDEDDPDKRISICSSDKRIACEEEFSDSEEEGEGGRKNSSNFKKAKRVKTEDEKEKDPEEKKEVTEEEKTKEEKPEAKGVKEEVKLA
The next test deals with Histone deacetylase 2 (Homo sapiens, UniProt Q92769).
Chain of Histone deacetylase 2 (Q92769 whole entry): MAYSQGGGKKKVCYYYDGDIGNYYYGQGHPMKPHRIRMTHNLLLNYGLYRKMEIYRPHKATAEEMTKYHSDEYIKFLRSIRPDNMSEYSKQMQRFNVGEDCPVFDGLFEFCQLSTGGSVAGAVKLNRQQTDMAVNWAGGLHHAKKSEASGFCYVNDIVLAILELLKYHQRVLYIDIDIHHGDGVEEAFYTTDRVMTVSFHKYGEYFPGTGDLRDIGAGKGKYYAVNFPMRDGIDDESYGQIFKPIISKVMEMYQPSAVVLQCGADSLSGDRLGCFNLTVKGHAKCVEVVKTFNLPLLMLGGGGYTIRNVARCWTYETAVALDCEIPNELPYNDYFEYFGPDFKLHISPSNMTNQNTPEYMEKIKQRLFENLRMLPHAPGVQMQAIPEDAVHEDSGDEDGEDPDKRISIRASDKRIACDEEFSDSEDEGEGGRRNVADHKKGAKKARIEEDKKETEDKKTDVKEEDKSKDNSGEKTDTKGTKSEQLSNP

Chain of Histone deacetylase 3 (O15379 whole entry): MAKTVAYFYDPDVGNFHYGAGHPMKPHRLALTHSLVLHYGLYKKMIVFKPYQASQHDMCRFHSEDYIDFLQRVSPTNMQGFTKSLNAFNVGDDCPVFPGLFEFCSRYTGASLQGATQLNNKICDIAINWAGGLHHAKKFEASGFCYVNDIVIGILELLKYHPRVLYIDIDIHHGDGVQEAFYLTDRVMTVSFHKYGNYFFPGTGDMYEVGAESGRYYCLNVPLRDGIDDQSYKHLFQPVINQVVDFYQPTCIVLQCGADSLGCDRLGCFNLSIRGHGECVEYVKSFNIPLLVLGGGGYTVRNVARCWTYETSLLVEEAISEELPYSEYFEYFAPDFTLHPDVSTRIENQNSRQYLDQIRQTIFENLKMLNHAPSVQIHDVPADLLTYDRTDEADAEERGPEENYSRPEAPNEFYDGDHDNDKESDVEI
Description for Histone deacetylase 1: Inhibition of HDAC1 assessed as blockade of decorboxylation of carboxyfluorescein labeled acetylated peptide substrate after 17 hrs
Description for Histone deacetylase 2: Inhibition of HDAC2 assessed as blockade of decorboxylation of carboxyfluorescein labeled acetylated peptide substrate after 17 hrs
Description for Histone deacetylase 3: Inhibition of HDAC3 assessed as blockade of decorboxylation of carboxyfluorescein labeled acetylated peptide substrate after 17 hrs
Description for Histone deacetylase 8: Inhibition of HDAC8 assessed as blockade of decorboxylation of carboxyfluorescein labeled acetylated peptide substrate after 17 hrs

Turning to `Nc1ccccc1NC(=O)CCCCCCC(=O)Nc1cccc(-n2cc(-c3ccccc3)nn2)c1`, the half-maximal inhibitory concentration (IC50) is 32000 nM in “cells [1]”; greater than 30000 nM in test [2]; greater than 50000 nM in the test with MIA PaCa-2; greater than 50000 nM in the test with BXPC-3; 122 nM against Histone deacetylase 3; greater than 30000 nM in test [3]. In addition, the IC50 at Histone deacetylase 8 was greater than 30000 nM; in the test “cells [4]”, greater than 50000 nM; with HuP-T3, greater than 50000 nM.

As to `O=C(CCCCCCC(=O)Nc1cccc(-c2cn(-c3ccc(C(F)(F)F)cc3)nn2)c1)NO`, the IC50 at Histone deacetylase 1 was determined as 8.7 nM; in test [2], 2.9 nM; in [3], 14.5 nM; on Histone deacetylase 8 it was 5220 nM; at Histone deacetylase 2 it was 28.5 nM.

As for `O=C(CCCCCCC(=O)Nc1cccc(-c2cn(-c3cc(CO)cc(CO)c3)nn2)c1)NO`, the concentration for half-maximal inhibition (IC50) was 5.7 nM against Histone deacetylase 1; 1.9 nM in [2]; 5.8 nM in test [3]; 1320 nM against Histone deacetylase 8; 27.8 nM at Histone deacetylase 2.

As to `O=C(CCCCCCC(=O)Nc1cccc(-c2cn(-c3ccc(F)cc3)nn2)c1)NO`, the 50% inhibitory concentration (IC50) turned out to be 31.9 nM against Histone deacetylase 1; 8.4 nM in test [2]; 32.8 nM in test [3]; 12000 nM on Histone deacetylase 8; 60 nM on Histone deacetylase 2.

On to `O=C(CCCCCCC(=O)Nc1cccc(-c2cn(-c3ccc(I)cc3)nn2)c1)NO`, for which the IC50 is 8 nM on Histone deacetylase 1; 7700 nM in the test “cells [1]”; 2.2 nM in [2]; 2330 nM in the test with MIA PaCa-2; 1100 nM with BXPC-3; 10.7 nM in test [3]. Also, the IC50 was greater than 30000 nM against Histone deacetylase 8, 24.6 nM at Histone deacetylase 2, 2340 nM in “cells [4]” and 1400 nM with HuP-T3.

Turning to `O=C(CCCCCCC(=O)Nc1cccc(-c2cn(-c3cc(F)cc(F)c3)nn2)c1)NO`, on Histone deacetylase 1, inhibition was half-maximal at 5.3 nM (IC50).

As to `O=C(CCCCCCC(=O)Nc1cccc(-c2cn(C3CCCCC3)nn2)c1)NO`, the IC50 at Histone deacetylase 1 came out at 8.6 nM; in “cells [1]”, 100 nM; in [2], 3.3 nM; in the test with MIA PaCa-2 it was 100 nM; in the test with BXPC-3, 4000 nM; on Histone deacetylase 3, 3.7 nM. The IC50 in test [3] is 9.8 nM; on Histone deacetylase 8 it was 1190 nM; at Histone deacetylase 2, 27.5 nM; in the test “cells [4]”, 500 nM; with HuP-T3, 400 nM.

Regarding `O=C(CCCCCCC(=O)Nc1cccc(-n2cc(-c3ccccc3)nn2)c1)NO`, the IC50 against Histone deacetylase 1 stood at 4.6 nM; in test [2], 3.1 nM; in test [3], 6.8 nM; on Histone deacetylase 8, 4180 nM; against Histone deacetylase 2 it was 25.1 nM.

With `O=C(CCCCCCC(=O)Nc1cccc(-n2cc(C3CCCCC3)nn2)c1)NO`, the IC50 on Histone deacetylase 1 was found to be 12.1 nM; in the test “cells [1]”, 900 nM; in [2], 4.3 nM; in the test with MIA PaCa-2 it was 100 nM; with BXPC-3 it was 2000 nM; on Histone deacetylase 3 it was 5.3 nM. The IC50 worked out at 16.6 nM in [3]; 2750 nM against Histone deacetylase 8; 48.2 nM against Histone deacetylase 2; 500 nM in “cells [4]”; 400 nM in the test with HuP-T3.

As for `O=C(CCCCCCC(=O)Nc1cccc(-c2cn(-c3ccccc3)nn2)c1)NO`, the IC50 in “cells [4]” was less than 500 nM.
